Measurements published in BigSolDB 2.1.

Oc1ccc(/C=C/c2cc(O)cc(O)c2)cc1
solubility (mole fraction)
Conditions | 273.2 K | 283.2 K | 293.2 K | 303.2 K | 313.2 K | 323.2 K
in acetone | 0.0846 | 0.0858 | 0.0871 | 0.0877 | 0.0886 | –
in ethanol | 0.0101 | 0.0127 | 0.0156 | 0.0182 | 0.0208 | 0.0236
in water | – | – | 2.9e-06 | 4.57e-06 | 6.46e-06 | 9.3e-06
